Four compounds from patent US9296746B2, “Heterocyclic compound” (TAKEDA PHARMACEUTICAL COMPANY LIMITED, priority 2012, dated 2016) can be followed below.

In assay [1] the test system is APP transgenic mouse (Tg2576). Put plainly: Novel object recognition test using an APP transgenic mouse (Tg2576). Format: in vivo, Tg2576 mice. The note with it: 3 mg/mL suspension at 10 mL/kg orally once a day for 6 weeks. The protocol: Animals used were 6-week-old Tg2576 mice and their wild-type mice (10 mice/group). A test compound was suspended in a 0.5% aqueous methyl cellulose [133-14255 WAKO] solution (3 mg/mL). The body weight of the mice was measured, and the solution was forcibly administered orally and repeatedly at 10 mL/kg once a day for 6 weeks. Then, a novel object recognition test was performed as follows. On the day before acquisition trial, the mice kept in the same cage were put in an observation box in which the illuminance was set to 300 lx, and habituated for 30 min. After the habituation, a compound was orally administered. On the next day, the mice were put, as an acquisition trial, in an observation box in which two same objects were placed, and the number and duration of contacts to the objects were measured for 5 min under 300 lx. A compound was orally administered after the measurement. The day after the acquisition trial, the one object was replaced with a novel object, and the number and duration of contacts to each of the object were measured for 5 min. A metal cylinder and ceramic triangular pyramid were used in this test. A control group (test compound-untreated group) and a control group in wild-type mice were used for comparison. […]

A further assay concerns the target T1, human CH24H (Homo sapiens, UniProt Q9Y6A2).
T1 construct: Using Full-Length Mammalian Gene Collection No. 4819975 (Invitrogen) as a template; made in house; host or cells: FreeStyle 293-F cells (transient transfection); cell lysate supernatant, not purified
Put plainly: Measurement of CH24H inhibitory activity (24-HC produced from [14C] cholesterol by human CH24H lysate). Format: biochemical. The note with it: test compound 1 μM, [14C] cholesterol 15 μM, 37° C., 5 hr, read-out: Inhibitory Rate (%) in 1 μM. The method, then: The expression of human CH24H was performed using FreeStyle 293 Expression System (Invitrogen). According to the manual attached to FreeStyle 293 Expression System and using the plasmid DNA for human CH24H expression (pcDNA3.1(+)/hCH24H) constructed in Experimental Example 1, a transient expression using FreeStyle 293-F cell was performed. After transfection, the cells were cultured at 37° C., 8% CO2 with shaking at 125 rpm for 2 days. The cells were collected by centrifugation, and suspended in a suspension buffer (100 mM potassium phosphate (pH 7.4), 0.1 mM EDTA, 1 mM DTT, 20% Glycerol). The suspended product was disrupted by a polytron homogenizer (manufactured by Kinematica), and centrifuged at 9000×g for 10 min, and the supernatant was collected. The collected supernatant was cryopreserved (−80° C.) as a human CH24H lysate standard product.
For the measurement of CH24H inhibitory activity, using the human CH24H lysate prepared in Experimental Example 2, the amount of 24-HC produced from cholesterol by catalytic activity of CH24H was measured in the presence of a test compound, and compared with that measured in the absence of the test compound. That is, a test compound solution at various concentrations was mixed with a reaction buffer (50 mM potassium phosphate containing 0.1% BSA and Complete, EDTA-free, pH 7.4) and human CH24H lysate. Then, [^14C] cholesterol (53 mCi/mmol specific activity, 15 μM) was added, and CH24H reaction was performed at 37° C. for 5 hr. After completion of the reaction, a quenching solution consisting of chloroform/methanol/distilled water (2:2:1 v/v) was added, and the resulting 24-HC was extracted by shaking. The extract was applied to silica gel thin layer chromatography (ethyl acetate:toluene=4:6), and the obtained ^14C-24HC fraction was measured with BAS2500 (Fujifilm Corporation).
The inhibitory rate (%) was calculated from the ratio of radioactivity in the presence of a test compound relative to the radioactivity in the absence of the test compound.

SMILES strings stand for the structures.

T1 sequence (Q9Y6A2 whole entry): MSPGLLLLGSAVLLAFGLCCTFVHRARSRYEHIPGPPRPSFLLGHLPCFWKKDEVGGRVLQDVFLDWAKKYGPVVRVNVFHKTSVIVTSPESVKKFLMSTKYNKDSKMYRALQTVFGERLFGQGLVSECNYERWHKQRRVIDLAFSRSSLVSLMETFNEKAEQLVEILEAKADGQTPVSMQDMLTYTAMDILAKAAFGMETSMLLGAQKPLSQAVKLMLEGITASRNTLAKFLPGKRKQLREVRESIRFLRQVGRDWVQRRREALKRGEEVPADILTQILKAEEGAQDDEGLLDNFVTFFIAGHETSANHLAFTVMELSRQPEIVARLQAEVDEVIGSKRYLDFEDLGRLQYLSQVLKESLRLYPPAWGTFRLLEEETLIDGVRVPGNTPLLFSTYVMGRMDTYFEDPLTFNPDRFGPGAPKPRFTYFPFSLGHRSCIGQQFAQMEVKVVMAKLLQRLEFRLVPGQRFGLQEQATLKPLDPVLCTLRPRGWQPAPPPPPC

For the compound `O=C(c1cnc2c(-c3cnco3)cc(C(F)(F)F)cn12)N1C2CCC1COC2` [Example 85, 3-oxa-8-azabicyclo[3.2.1]oct-8-yl(8-(1,3-oxazol-5-yl)-6-(trifluoromethyl)imidazo[1,2-a]pyridin-3-yl)methanone], in assay [1], the “exploration Rate (%) of Novel Object, duration of contacts” value was found to be 61.8% and the “exploration Rate (%) of Novel Object, number of contacts” value worked out at 54.4%. For the same compound, the inhibition at 1 µM on human CH24H is 88%. `N#C[C@H]1CCCN1C(=O)c1cnc2c(-c3cnco3)cc(C(F)(F)F)cn12` [Example 175, (2R)-1-((8-(1,3-oxazol-5-yl)-6-(trifluoromethyl)imidazo[1,2-a]pyridin-3-yl)carbonyl)pyrrolidine-2-carbonitrile]: the inhibition at 1 µM on human CH24H is 80%. Same read-out and setting: in the case of `O=C(c1cnc2c(-c3cnco3)cc(C(F)(F)F)cn12)N1C2COCC1COC2` [Example 176, 3,7-dioxa-9-azabicyclo[3.3.1]non-9-yl(8-(1,3-oxazol-5-yl)-6-(trifluoromethyl)imidazo[1,2-a]pyridin-3-yl)methanone] it was 94%; in that of `O=C(c1cnc2c(-c3cnco3)cc(C(F)(F)F)cn12)N1CC(F)C1` [Example 177, (3-fluoroazetidin-1-yl)(8-(1,3-oxazol-5-yl)-6-(trifluoromethyl)imidazo[1,2-a]pyridin-3-yl)methanone], 86%.
